Test results as given in PMC12455397 (Angewandte Chemie (International Ed. in English), 2025).
Counter-ions that a name gives are not always drawn. Like-named read-outs stand apart in the source and are kept apart here.

What was measured:
human Keap1 Kelch = human Keap1 Kelch (Homo sapiens, UniProt Q14145); test: Fluorescence polarization (FP) competition assay with Cy5-Nrf2 peptide probe
Protocol: Fluorescence Polarization Assay
(3 nM) and human Keap1 Kelch at 14 nM in the 1×HBSTET assay buffer, as previously.[1, 3-5] In short, the assay was performed in black flat-bottom 384-well plates (Corning Life Sciences, NY) allowing an assay volume of 30 μL/well. Proper mixing and elimination of air bubbles was ascertained by spinning down the plates and incubation for 10–15 minutes at RT before measuring FP levels on a Safire2 plate-reader (Tecan, Männedorf, Switzerland). The Ki values of the compounds were determined by dose-response experiments (12-points, 4% DMSO in all wells), where FP values were fitted to the equation Y = Bottom + (Top - Bottom)/[1 + (10HillSlope*(LogIC50-X))]; X representing the logarithmic value of compound concentration. The resulting IC50 value, together with the Kd value (the dissociation constant between probe and Keap1 Kelch, determined in a prior experiment) and Keap1 Kelch concentrations, was used to calculate the theoretical competitive inhibition constant, the Ki value.[18]

Keap1 Kelch domain = Keap1 Kelch domain (Homo sapiens, UniProt Q14145); test: Surface plasmon resonance (SPR), immobilized Keap1 Kelch
Protocol: Surface Plasmon Resonance
SPR measurements were performed at 25 °C using a Pioneer FE FE instrument (Sartorius), as described
previosuly.[1, 3-4] The Keap1 Kelch domain was covalently immobilized on the biosensor chip surface by
amine coupling to a level of 2150 RU, using a 10 mM NaOAc pH 5 immobilization buffer. The 1×HBSTET
buffer (10 mM Hepes, 150 mM NaCl, 0.005% Tween20, 3 mM EDTA, 1 mM TCEP, pH = 7.4)
supplemented with 4% DMSO was used as running buffer for the experiments. Microcalibration was
performed for all SPR experiments to adjust for DMSO bulk effects (low limit of 3% and a high limit of
5%). The compound was injected in a concentration series of twofold serial dilutions (67.5–1000 µM)
using standard injections at a 30 μL/min flow rate. The data were analyzed using Qdat Data Analysis
Tool version 2.6.3.0 (Sartorius). The sensorgrams were corrected for buffer effects and unspecific
binding to the chip matrix by subtraction of blank and reference surfaces (a blank flow cell channel
activated by the injection of EDC/NHS and inactivated by the injection of ethanolamine). The
dissociation constant (Kd) was estimated by plotting MW normalized response levels (RUnorm) at equilibrium (Req) against the injected concentration and curve-fitted to a Langmuir (1:1) binding

[1] = system: differentiated THP1 macrophages (WT)
[2] = system: Nrf2 KO THP1 cells differentiated into macrophages; test: RNA sequencing transcriptome analysis, Nrf2 KO THP-1 macrophages; format: cell-based; conditions: 12 h, CDDO-Me 0.1 µM, DMF, 24, 28 10 µM, KI-696 1 µM
THP1 cells = format: cell-based; conditions: THP-1 WT, 100 µM, 48 h; stated as contrast to 24/28, which did not reduce viability
Protocol: THP1 cells were exposed to the compounds for 48 hours at 10 and 100 μM. Viability was quantified using
propidium iodide exclusion through flow cytometry. PI-positive cells (dead or necrotic cells) were quantified
through red fluorescence on a BD C6 Accuri flow cytometer using a 488 nm excitation wavelength and an
emission filter of 585 nm ± 40 nm (BD Biosciences). 50,000 events were collected (n = 3 technical replicates
per condition). The experiment was repeated twice. Data are presented as mean ± SEM (n = 4‒10).

[3] = WT, 12 h, CDDO-Me 0.1 µM, SFN, DMF, 24, 28 10 µM, KI-696 1 µM
[4] = WT, 12 h, CDDO-Me 0.1 µM, SFN, DMF, 24, 28 10 µM, KI-696 1 µM, NS = not significant

Chain of Keap1 Kelch domain (Q14145 321-609 limits assumed): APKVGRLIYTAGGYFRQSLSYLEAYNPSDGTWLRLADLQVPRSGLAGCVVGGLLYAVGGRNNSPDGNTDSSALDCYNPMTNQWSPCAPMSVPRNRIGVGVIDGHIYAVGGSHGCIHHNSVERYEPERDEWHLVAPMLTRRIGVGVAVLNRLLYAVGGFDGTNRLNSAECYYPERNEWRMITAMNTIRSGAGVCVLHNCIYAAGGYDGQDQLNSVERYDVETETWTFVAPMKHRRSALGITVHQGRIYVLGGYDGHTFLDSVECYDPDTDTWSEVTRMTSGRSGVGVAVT
Chain of human Keap1 Kelch (Q14145 321-609): as the sequence (Q14145 321-609 limits assumed) above

Compound | AKR1B10 FC ([1]; Table S3, THP-1, 12 h) | CASP1 FC ([1]; Table S3, THP-1, 12 h) | COL1A1 FC ([1]; Table S3, THP-1, 12 h) | COL4A1 FC ([1]; Table S3, THP-1, 12 h) | COL4A2 FC ([1]; Table S3, THP-1, 12 h) | GPX1 FC ([1]; Table S3, THP-1, 12 h) | GPX4 FC ([1]; Table S3, THP-1, 12 h) | IFNAR1 FC ([1]; Table S3, THP-1, 12 h) | IFNAR2 FC ([1]; Table S3, THP-1, 12 h) | IFNGR1 FC ([1]; Table S3, THP-1, 12 h) | IFNGR2 FC ([1]; Table S3, THP-1, 12 h) | IL1B FC ([1]; Table S3, THP-1, 12 h) | IRF3 FC ([1]; Table S3, THP-1, 12 h) | LAMB1 FC ([1]; Table S3, THP-1, 12 h) | LAMB4 FC ([1]; Table S3, THP-1, 12 h) | MMP8 FC ([1]; Table S3, THP-1, 12 h) | MMP9 FC ([1]; Table S3, THP-1, 12 h) | MMP12 FC ([1]; Table S3, THP-1, 12 h) | NLRP3 FC ([1]; Table S3, THP-1, 12 h) | NOD2 FC ([1]; Table S3, THP-1, 12 h) | further results
O=C(COc1ccccc1)NC1CCCCC1 [Compound 1] |  |  |  |  |  |  |  |  |  |  |  |  |  |  |  |  |  |  |  |  | activity in FP competition assay (human Keap1 Kelch): inactive; Kd (Keap1 Kelch domain; KD (SPR, printed in Figure 1b), Rmax fixed to theoretical maximum (15 RU)): 686 ± 7 µM; Kd (Keap1 Kelch domain; Kd (SPR), estimated with Rmax fixed to theoretical maximum): ~700 µM; ligand efficiency (LE) (Keap1 Kelch domain; from SPR Kd): 0.25
COC(=O)/C=C/C(=O)OC [DMF, dimethyl fumarate] | 1,00 fold | 0,18 fold | 0,44 fold | 1,46 fold | 1,16 fold | 0,59 fold | 1,09 fold | 0,95 fold | 0,80 fold | 0,93 fold | 0,78 fold | 2,70 fold | 1,15 fold | 4,44 fold | 7,56 fold | 1,70 fold | 0,85 fold | 1,88 fold | 1,19 fold | 0,31 fold | NOXA1 FC ([1]; Table S3, THP-1, 12 h): 0,30 fold; SOCS1 FC ([1]; Table S3, THP-1, 12 h): 5,21 fold; SOCS3 FC ([1]; Table S3, THP-1, 12 h): 18,01 fold; SOD1 FC ([1]; Table S3, THP-1, 12 h): 1,73 fold; SOD2 FC ([1]; Table S3, THP-1, 12 h): 0,19 fold; STAT1 FC ([1]; Table S3, THP-1, 12 h): 0,62 fold; TBK1 FC ([1]; Table S3, THP-1, 12 h): 1,19 fold; TLR4 FC ([1]; Table S3, THP-1, 12 h): 0,84 fold; TNFRSF1B FC ([1]; Table S3, THP-1, 12 h): 1,26 fold; TRAP1 FC ([1]; Table S3, THP-1, 12 h): 0,85 fold; cGAS FC ([1]; Table S3, THP-1, 12 h): 1,04 fold; number of upregulated genes not shared by the other groups ([1]; WT, 12 h, CDDO-Me 0.1 µM, DMF 10 µM): > 500 genes; Average FC of upregulated Nrf2-dependent genes [1, 3]: 4.2 fold; number of upregulated genes (FC >2.0, p-adj <0.05) [1, 3]: 845 genes; number of up- or downregulated genes in Nrf2 KO cells [2]: 3709 genes; cell viability (THP1 cells): contrasted
COc1cc([C@@H](CC(=O)O)c2ccc(C)c(CN3C[C@@H](C)Oc4ccccc4S3(=O)=O)c2)cc2nnn(C)c12 [KI-696] | 26,39 fold | 0,94 fold | 1,59 fold | 0,61 fold | 0,77 fold | 1,38 fold | 1,74 fold | 0,90 fold | 1,02 fold | 0,70 fold | 0,91 fold | 0,85 fold | 1,43 fold | 2,64 fold | 3,38 fold | 0,82 fold | 1,21 fold | 0,60 fold | 0,78 fold | 0,57 fold | CYP1B1 FC ([1]; Table S3, THP-1, 12 h): 0,76 fold; NOXA1 FC ([1]; Table S3, THP-1, 12 h): 0,92 fold; SOCS1 FC ([1]; Table S3, THP-1, 12 h): 2,43 fold; SOCS3 FC ([1]; Table S3, THP-1, 12 h): 1,66 fold; SOD1 FC ([1]; Table S3, THP-1, 12 h): 1,75 fold; SOD2 FC ([1]; Table S3, THP-1, 12 h): 0,87 fold; STAT1 FC ([1]; Table S3, THP-1, 12 h): 0,69 fold; TBK1 FC ([1]; Table S3, THP-1, 12 h): 1,56 fold; TLR4 FC ([1]; Table S3, THP-1, 12 h): 0,32 fold; TNFRSF1B FC ([1]; Table S3, THP-1, 12 h): 1,13 fold; TRAP1 FC ([1]; Table S3, THP-1, 12 h): 1,02 fold; cGAS FC ([1]; Table S3, THP-1, 12 h): 1,08 fold; Average FC of upregulated Nrf2-dependent genes [1, 3]: 2.4 fold; number of upregulated genes (FC >2.0, p-adj <0.05) [1, 3]: 88 genes; GCLM fold change vs vehicle [1, 4]: 2.5 fold; GSR fold change vs vehicle [1, 4]: 2.4 fold; HMOX1 fold change vs vehicle [1, 4]: 2.6 fold; NQO1 fold change vs vehicle [1, 4]: 2.3 fold; TXNRD1 fold change vs vehicle [1, 4]: 2.3 fold; number of up- or downregulated genes in Nrf2 KO cells [2]: none
C[S+]([O-])CCCCN=C=S (centres unmarked) [SFN, sulforaphane] | 34,78 fold | 0,45 fold | 0,98 fold | 0,55 fold | 1,38 fold | 0,53 fold | 0,94 fold | 0,88 fold | 0,85 fold | 0,63 fold | 0,58 fold | 0,36 fold | 1,48 fold | 7,81 fold | 17,37 fold | 0,32 fold | 0,70 fold | 0,29 fold | 0,44 fold | 0,16 fold | CYP1B1 FC [1]: 1,15 fold; NOXA1 FC ([1]; Table S3, THP-1, 12 h): 0,45 fold; SOCS1 FC ([1]; Table S3, THP-1, 12 h): 2,19 fold; SOCS3 FC ([1]; Table S3, THP-1, 12 h): 0,99 fold; SOD1 FC ([1]; Table S3, THP-1, 12 h): 2,16 fold; SOD2 FC ([1]; Table S3, THP-1, 12 h): 0,40 fold; STAT1 FC ([1]; Table S3, THP-1, 12 h): 0,66 fold; TBK1 FC ([1]; Table S3, THP-1, 12 h): 0,95 fold; TLR4 FC ([1]; Table S3, THP-1, 12 h): 0,43 fold; TNFRSF1B FC ([1]; Table S3, THP-1, 12 h): 1,19 fold; TRAP1 FC ([1]; Table S3, THP-1, 12 h): 0,74 fold; cGAS FC ([1]; Table S3, THP-1, 12 h): 1,42 fold; Average FC of upregulated Nrf2-dependent genes [1, 3]: 4.1 fold; number of upregulated genes (FC >2.0, p-adj <0.05) [1, 3]: 676 genes; GCLM fold change vs vehicle [1, 4]: 4.7 fold; GSR fold change vs vehicle [1, 4]: 3.4 fold; SRXN1 fold change vs vehicle [1, 4]: 4.5 fold; TXNRD1 fold change vs vehicle [1, 4]: 3.9 fold; cell viability (THP1 cells): contrasted
